In patent publication US20240059703A1 (AMGEN INC., priority 2021, published 2024):

The molecules below were run against KRAS G12C (Homo sapiens (Human), UniProt P01116, C118A/G12C) (assay: 2 h coupled exchange assay). Settings: Avg 2 h Coupled exchange IC50, 2 h compound pre-incubation.
Type: biochemical
Method: The term “2 h coupled exchange assay” or “20 h coupled exchange assay” as used herein refers to the assay described in the Section entitled “BIOLOGICAL EVALUATION.”

KRAS G12C, sequence (P01116 other isoform, or with tags, fused parts or gaps G12C/C118A): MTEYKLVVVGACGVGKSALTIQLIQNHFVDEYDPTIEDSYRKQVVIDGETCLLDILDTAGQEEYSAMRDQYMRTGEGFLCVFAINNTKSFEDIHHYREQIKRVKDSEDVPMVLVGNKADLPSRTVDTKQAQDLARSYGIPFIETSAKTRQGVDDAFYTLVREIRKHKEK

IC50 [nM]	Compound
606	C=CC(=O)N1CC2(CCN(c3nc4c(c(-c5cccc6cc[nH]c56)c3C#N)C[C@H]3C[C@@H]4C3(C)C)C2)C1 [Example 14-22, (1R,9R)-6-(1H-indol-7-yl)-10,10-dimethyl-4-(2-(2-propenoyl)-2,6-diazaspiro[3.4]octan-6-yl)-3-azatricyclo[7.1.1.0^2,7]undeca-2,4,6-triene-5-carbonitrile]
506	C=CC(=O)N1CC2(CCN(c3nc4c(c(-c5cccc6c5cnn6C)c3C#N)C[C@H]3C[C@@H]4C3(C)C)C2)C1 [Example 14-24, (1R,9R)-10,10-dimethyl-6-(1-methyl-1H-indazol-4-yl)-4-(2-(2-propenoyl)-2,6-diazaspiro[3.4]octan-6-yl)-3-azatricyclo[7.1.1.0^2,7]undeca-2,4,6-triene-5-carbonitrile]
164	C=CC(=O)N1CC2(CCN(c3nc4c(c(-c5ccc(F)c6sc(N)nc56)c3C)COC(C)(C)C4)C2)C1 [Example 14-27, 1-(6-(4-(2-amino-7-fluoro-1,3-benzothiazol-4-yl)-3,7,7-trimethyl-7,8-dihydro-5H-pyrano[4,3-b]pyridin-2-yl)-2,6-diazaspiro[3.4]octan-2-yl)-2-propen-1-one]
215	C=CC(=O)N1CC2(CCN(c3nc4c(c(-c5cc(O)ccc5C)c3C)COC(C)(C)C4)C2)C1 [Example 14-30, 1-(6-(4-(5-hydroxy-2-methylphenyl)-3,7,7-trimethyl-7,8-dihydro-5H-pyrano[4,3-b]pyridin-2-yl)-2,6-diazaspiro[3.4]octan-2-yl)-2-propen-1-one]
226	[2H]C([2H])([2H])n1ncc2ccc(C)c(-c3c(C)c(N4CCC5(CN(C(=O)C=C)C5)C4)nc4c3COC(C)(C)C4)c21 [Example 14-36, 1-(6-(3,7,7-trimethyl-4-(6-methyl-1-(^2H3)methyl-1H-indazol-7-yl)-7,8-dihydro-5H-pyrano[4,3-b]pyridin-2-yl)-2,6-diazaspiro[3.4]octan-2-yl)-2-propen-1-one]
478	C=CC(=O)N1CC2(CCN(c3nc4c(c(-c5c(C)ccc6cnn(C)c56)c3C)COC(C)(C)C4)C2)C1 [Example 14-37, 1-(6-(4-(1,6-dimethyl-1H-indazol-7-yl)-3,7,7-trimethyl-7,8-dihydro-5H-pyrano[4,3-b]pyridin-2-yl)-2,6-diazaspiro[3.4]octan-2-yl)-2-propen-1-one]
776	C=CC(=O)N1CC2(CCN(c3nc4c(c(-c5ccc(F)c(O)c5)c3C#N)C[C@H]3C[C@@H]4C3(C)C)C2)C1 [Example 14-49, (1R,9R)-6-(4-fluoro-3-hydroxyphenyl)-10,10-dimethyl-4-(2-(2-propenoyl)-2,6-diazaspiro[3.4]octan-6-yl)-3-azatricyclo[7.1.1.0^2,7]undeca-2,4,6-triene-5-carbonitrile]
360	C=CC(=O)N1CC2(CCN(c3nc4c(c(-c5cc(O)ccc5C)c3F)COC(C)(C)C4)C2)C1 [Example 14-53, 1-(6-(3-fluoro-4-(5-hydroxy-2-methylphenyl)-7,7-dimethyl-7,8-dihydro-5H-pyrano[4,3-b]pyridin-2-yl)-2,6-diazaspiro[3.4]octan-2-yl)-2-propen-1-one]
349	C=CC(=O)N1CC2(CCN(c3nc4c(c(-c5c(C)ccc6cn[nH]c56)c3F)COC(C)(C)C4)C2)C1 [Example 14-54, 1-(6-(3-fluoro-7,7-dimethyl-4-(6-methyl-1H-indazol-7-yl)-7,8-dihydro-5H-pyrano[4,3-b]pyridin-2-yl)-2,6-diazaspiro[3.4]octan-2-yl)-2-propen-1-one]
209	C=CC(=O)N1CC2(CCN(c3nc4c(c(-c5c(C)c(Cl)cc6cnn(C)c56)c3F)COC(C)(C)C4)C2)C1 [Example 14-55, 1-(6-(4-(5-chloro-1,6-dimethyl-1H-indazol-7-yl)-3-fluoro-7,7-dimethyl-7,8-dihydro-5H-pyrano[4,3-b]pyridin-2-yl)-2,6-diazaspiro[3.4]octan-2-yl)-2-propen-1-one]

Same assay, conditions: Avg 2 h Coupled exchange IC50, 2 h compound pre-incubation, SOS-mediated nucleotide exchange

IC50 [nM]	Compound
702	C=CC(=O)N1CC2(CCN(c3nc4c(c(-c5c(C)ccc6[nH]ncc56)c3C#N)OC3(COC3)C4)C2)C1 [Example 13-107, 7-(5-methyl-1H-indazol-4-yl)-5-(2-(2-propenoyl)-2,6-diazaspiro[3.4]octan-6-yl)-3H-spiro[furo[3,2-b]pyridin-2,3′-oxetane]-6-carbonitrile]
1110	C=CC(=O)N1CC2(CCN(c3nc4c(c(-c5cnccc5C)c3C#N)C[C@H]3C[C@@H]4C3(C)C)C2)C1 [Example 13-109, (1R,9R)-10,10-dimethyl-6-(4-methyl-3-pyridinyl)-4-(2-(2-propenoyl)-2,6-diazaspiro[3.4]octan-6-yl)-3-azatricyclo[7.1.1.0^2,7]undeca-2,4,6-triene-5-carbonitrile]
294	C=CC(=O)N1CC2(CCN(c3nc4c(c(-c5c(C)ccc6cnn(C)c56)c3C#N)COC(C3CC3)C4)C2)C1 [Example 13-111, (7R)-7-cyclopropyl-4-(1,6-dimethyl-1H-indazol-7-yl)-2-(2-(2-propenoyl)-2,6-diazaspiro[3.4]octan-6-yl)-7,8-dihydro-5H-pyrano[4,3-b]pyridine-3-carbonitrile|(7S)-7-cyclopropyl-4-(1,6-dimethyl-1H-indazol-7-yl)-2-(2-(2-propenoyl)-2,6-diazaspiro[3.4]octan-6-yl)-7,8-dihydro-5H-pyrano[4,3-b]pyridine-3-carbonitrile]
101	C=CC(=O)N1CC2(CCN(c3nc4c(c(-c5c(C)ccc6cnn(C)c56)c3C#N)[C@H]3C[C@@H](C4)C3)C2)C1 [Example 13-131, (1S,9S)-3-(1,6-dimethyl-1H-indazol-7-yl)-5-(2-(2-propenoyl)-2,6-diazaspiro[3.4]octan-6-yl)-6-azatricyclo[7.1.1.0^2,7]undeca-2,4,6-triene-4-carbonitrile]
641	C=CC(=O)N1CC2(CCN(c3nc4c(c(-c5c(C)ccc6cnn(C)c56)c3C#N)CNC(C)(C)C4)C2)C1 [Example 13-138, 4-(1,6-dimethyl-1H-indazol-7-yl)-7,7-dimethyl-2-(2-(2-propenoyl)-2,6-diazaspiro[3.4]octan-6-yl)-5,6,7,8-tetrahydro-1,6-naphthyridine-3-carbonitrile]
842	C=CC(=O)N1CC2(CCN(c3nc4c(c(-c5c(C)ccc6cnn(C)c56)c3C#N)CO[C@H](C)C4)C2)C1 [Example 13-141, (7)-2-(2-acryloyl-2,6-diazaspiro[3.4]octan-6-yl)-4-(1,6-dimethyl-1H-indazol-7-yl)-7-methyl-7,8-dihydro-5H-pyrano[4,3-b]pyridine-3-carbonitrile]
620	C=CC(=O)N1CC2(CCN(c3nc4c(c(-c5c(C)ccc6cnn(C)c56)c3C#N)CO[C@@H](C)C4)C2)C1 [Example 13-142, (7)-2-(2-acryloyl-2,6-diazaspiro[3.4]octan-6-yl)-4-(1,6-dimethyl-1H-indazol-7-yl)-7-methyl-7,8-dihydro-5H-pyrano[4,3-b]pyridine-3-carbonitrile]
588	C=CC(=O)N1CC2(CCN(c3nc4ccccc4c(-c4c(C)ccc5[nH]nc(Cl)c45)c3C#N)C2)C1 [Example 14-3, 4-(3-chloro-5-methyl-1H-indazol-4-yl)-2-(2-(2-propenoyl)-2,6-diazaspiro[3.4]octan-6-yl)-3-quinolinecarbonitrile]
